Test results: ChEMBL document CHEMBL1201862, “PubChem BioAssay data set” (2004)
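A five-concentration, 48-hour dose response in 96-well plates underlies each endpoint, interpolated linearly between surrounding concentrations. Abbreviation: GI50, concentration required for 50% inhibition of growth.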 Active and inactive are the calls of the source. No stated cut-off is given here; in the data, active = GI50 up to about 1.1 µM and inactive = higher.

What was measured:
Assay in all cases: NCI-60 cell line screen, 48 h
[1] = system: HCT-116
[2] = system: SK-MEL-28
[3] = system: Malme-3M
[4] = system: UACC-62
[5] = system: MDA-MB-231
[6] = system: HT-29
[7] = system: HOP-62
[8] = system: RPMI-8226
[9] = system: SN12C
[10] = system: OVCAR-5
[11] = system: A498
[12] = system: SF-539
[13] = system: 786-0
[14] = system: NCI/ADR-RES
[15] = system: SNB-19
[16] = system: OVCAR-3
[17] = system: MDA-MB-435
[18] = system: BT-549
[19] = system: NCI-H23
[20] = system: K562

Row | SMILES | GI50 [1] | GI50 [2] | GI50 [3] | GI50 [4] | GI50 [5] | GI50 [6] | GI50 [7] | GI50 [8] | GI50 [9] | GI50 [10] | GI50 [11] | GI50 [12] | GI50 [13] | GI50 [14] | GI50 [15] | GI50 [16] | GI50 [17] | GI50 [18] | GI50 [19] | GI50 [20]
1 | CN(C)CCNc1ccc2c(=O)n(CCN(C)C)c(=O)n3c4ccc(N)cc4c(=O)c1c23 | < 0.01 µM (active) | 0.24 µM (active) | 0.116 µM (active) | 0.393 µM (active) | 0.187 µM (active) | < 0.01 µM (active) | 0.109 µM (active) | 0.04 µM (active) | < 0.01 µM (active) | 0.0998 µM (active) | 0.408 µM (active) | 0.0395 µM (active) | < 0.01 µM (active) | 0.259 µM (active) | 0.0261 µM (active) | 0.0995 µM (active) | 0.101 µM (active) | 0.407 µM (active) | 0.0361 µM (active) | < 0.01 µM (active)
2 | C=C1CCOC2(C(O)C(C)(O)CO)NC(=O)C1(O)NC2=O (stereo not given) | > 100 µM (inactive) | > 100 µM (inactive) | > 100 µM (inactive) | > 100 µM (inactive) | > 100 µM (inactive) | > 100 µM (inactive) | > 100 µM (inactive) | > 100 µM (inactive) | > 100 µM (inactive) | > 100 µM (inactive) | > 100 µM (inactive) | > 100 µM (inactive) | > 100 µM (inactive) | > 100 µM (inactive) | > 100 µM (inactive) | > 100 µM (inactive) | > 100 µM (inactive) | > 100 µM (inactive) | > 100 µM (inactive) | > 100 µM (inactive)
3 | Oc1cccc(Nc2cc(O)nc(O)n2)c1 | > 100 µM (inactive) | > 100 µM (inactive) | > 100 µM (inactive) | > 100 µM (inactive) | > 100 µM (inactive) | > 100 µM (inactive) | > 100 µM (inactive) | > 100 µM (inactive) | > 100 µM (inactive) | > 100 µM (inactive) | > 100 µM (inactive) | > 100 µM (inactive) | > 100 µM (inactive) | > 100 µM (inactive) | > 100 µM (inactive) | > 100 µM (inactive) | > 100 µM (inactive) | > 100 µM (inactive) | > 100 µM (inactive) | > 100 µM (inactive)
4 | COc1ccc(/C=C2\CN(C)CC3C2=NC(=S)NC3c2ccc(OC)cc2)cc1 (stereo not given) | 3.43 µM (inactive) | > 66.7 µM (inactive) | 2.99 µM (inactive) | 4.58 µM (inactive) | 13.3 µM (inactive) | 3.51 µM (inactive) | 6.46 µM (inactive) | 2.99 µM (inactive) | 6.81 µM (inactive) | 19.3 µM (inactive) | 3.27 µM (inactive) | 7.11 µM (inactive) | 3.66 µM (inactive) | 2.55 µM (inactive) | 5.66 µM (inactive) | 1.98 µM (inactive) | 1.33 µM (inactive) | 7.6 µM (inactive) | 7.96 µM (inactive) | 3.95 µM (inactive)
5 | O=C1NC(=O)C(Cc2ccccc2)(c2cccnc2)N1 (stereo not given) | > 100 µM (inactive) | > 100 µM (inactive) | > 100 µM (inactive) | > 100 µM (inactive) | > 100 µM (inactive) | > 100 µM (inactive) | > 100 µM (inactive) | > 100 µM (inactive) | > 100 µM (inactive) | > 100 µM (inactive) | > 100 µM (inactive) | > 100 µM (inactive) | > 100 µM (inactive) | > 100 µM (inactive) | > 100 µM (inactive) | > 100 µM (inactive) | > 100 µM (inactive) | > 100 µM (inactive) | > 100 µM (inactive) | > 100 µM (inactive)
6 | COC(=O)[C@]1(NC(=O)c2ccccc2)C[C@H]1C=O | > 100 µM (inactive) | > 100 µM (inactive) | > 100 µM (inactive) | > 64.7 µM (inactive) | > 100 µM (inactive) | > 100 µM (inactive) | > 100 µM (inactive) | > 100 µM (inactive) | > 100 µM (inactive) | > 100 µM (inactive) | > 71.8 µM (inactive) | > 100 µM (inactive) | > 100 µM (inactive) | > 58.6 µM (inactive) | > 100 µM (inactive) | > 100 µM (inactive) | > 100 µM (inactive) | 98.2 µM (inactive) | > 100 µM (inactive) | > 100 µM (inactive)
7 | Cc1cc2c(cc1Cl)SC(NN(C)C)=NS2(=O)=O | > 10 µM (inactive) | > 10 µM (inactive) | > 10 µM (inactive) | > 10 µM (inactive) | > 10 µM (inactive) | > 10 µM (inactive) | > 10 µM (inactive) | > 10 µM (inactive) | > 10 µM (inactive) | > 10 µM (inactive) | > 10 µM (inactive) | > 10 µM (inactive) | > 10 µM (inactive) | > 10 µM (inactive) | > 10 µM (inactive) | > 10 µM (inactive) | > 10 µM (inactive) | > 10 µM (inactive) | > 10 µM (inactive) | > 10 µM (inactive)
8 | COC(=O)CC[C@@H](C)[C@H]1CC[C@H]2[C@@H]3CC[C@@H]4C[C@H](O)CC[C@]4(C)[C@H]3CC[C@]12C | 17.1 µM (inactive) | 19 µM (inactive) | 17 µM (inactive) | 17.9 µM (inactive) | 17.8 µM (inactive) | 16.6 µM (inactive) | 18.4 µM (inactive) | 11.7 µM (inactive) | 18.6 µM (inactive) | 19.8 µM (inactive) | 20.5 µM (inactive) | 18.5 µM (inactive) | 18.5 µM (inactive) | 19 µM (inactive) | 21.6 µM (inactive) | 18.1 µM (inactive) | 16.7 µM (inactive) | 16.2 µM (inactive) | 16.5 µM (inactive) | 10.7 µM (inactive)
9 | C[C@@H]1C[C@@H](O)[C@]2(O)O[C@@H]3C[C@@]4(C=O)[C@@H](CC[C@@H]5[C@@H]4CC[C@]4(C)[C@@H](C6=CC(=O)OC6)CC[C@]54O)C[C@H]3O[C@@H]2O1 [CALACTIN] | 0.0102 µM (active) | 0.0288 µM (active) | 0.0119 µM (active) | 0.016 µM (active) | 0.0153 µM (active) | 0.021 µM (active) | 0.00671 µM (active) | 0.0281 µM (active) | 0.00301 µM (active) | 0.0237 µM (active) | 0.0208 µM (active) | 0.00581 µM (active) | 0.00617 µM (active) | 0.0306 µM (active) | 0.0219 µM (active) | 0.00169 µM (active) | 0.0441 µM (active) | 0.0379 µM (active) | 0.00222 µM (active) | 0.0179 µM (active)
10 | C[N+](C)(C)C(C1=CCCC1=O)c1ccccc1 (stereo not given) | 16.4 µM (inactive) | 30.3 µM (inactive) | 19.2 µM (inactive) | 18.3 µM (inactive) | 29 µM (inactive) | 23.5 µM (inactive) | 24.8 µM (inactive) | 15.8 µM (inactive) | 20.3 µM (inactive) | > 100 µM (inactive) | > 100 µM (inactive) | 54.5 µM (inactive) | 19.7 µM (inactive) | 33.8 µM (inactive) | > 100 µM (inactive) | 47.1 µM (inactive) | 26.2 µM (inactive) | 37.2 µM (inactive) | 45.2 µM (inactive) | 32.4 µM (inactive)
11 | OC1CCCCCCCCCCC1[S+]1CCCC1.O[B-](F)(F)F (stereo not given) | > 100 µM (inactive) | 68.4 µM (inactive) | 42 µM (inactive) | > 100 µM (inactive) | > 100 µM (inactive) | 88.9 µM (inactive) | > 100 µM (inactive) | 36.1 µM (inactive) | > 100 µM (inactive) | > 100 µM (inactive) | > 100 µM (inactive) | > 100 µM (inactive) | > 100 µM (inactive) | > 100 µM (inactive) | > 100 µM (inactive) | 52.5 µM (inactive) | > 100 µM (inactive) | > 100 µM (inactive) | 72.6 µM (inactive) | 29.6 µM (inactive)
12 | COC(=O)Cc1ccc2c(cnn2-c2ccccc2)c1OC | > 10 µM (inactive) | > 10 µM (inactive) | > 10 µM (inactive) | > 10 µM (inactive) | > 10 µM (inactive) | > 10 µM (inactive) | > 10 µM (inactive) | > 10 µM (inactive) | > 10 µM (inactive) | > 10 µM (inactive) | > 10 µM (inactive) | > 10 µM (inactive) | > 10 µM (inactive) | > 10 µM (inactive) | > 10 µM (inactive) | > 10 µM (inactive) | > 10 µM (inactive) | > 10 µM (inactive) | > 10 µM (inactive) | > 10 µM (inactive)
13 | O=C1[C@H](c2ccccc2)C2c3ccccc3CCN12 (stereo not given in full) | > 10 µM (inactive) | > 10 µM (inactive) | 0.897 µM (active) | > 10 µM (inactive) | > 10 µM (inactive) | > 10 µM (inactive) | > 10 µM (inactive) | > 10 µM (inactive) | > 10 µM (inactive) | > 10 µM (inactive) | > 10 µM (inactive) | > 10 µM (inactive) | > 10 µM (inactive) | > 10 µM (inactive) | > 10 µM (inactive) | > 10 µM (inactive) | > 10 µM (inactive) | > 10 µM (inactive) | > 10 µM (inactive) | > 10 µM (inactive)
14 | Fc1ccc(/N=C/C=C/Nc2ccc(F)cc2)cc1 | 3 µM (inactive) | 7.5 µM (inactive) | 16.4 µM (inactive) | 0.509 µM (active) | 15.8 µM (inactive) | 5.35 µM (inactive) | 17.7 µM (inactive) | 12.4 µM (inactive) | 14 µM (inactive) | 12.1 µM (inactive) | 15.5 µM (inactive) | 14.1 µM (inactive) | 4.3 µM (inactive) | 11.9 µM (inactive) | 13.3 µM (inactive) | 16 µM (inactive) | 5.3 µM (inactive) | 14.1 µM (inactive) | 15 µM (inactive) | 0.278 µM (active)
